Here are results for 9 compounds from patent US20100215618A1, “NOVEL COMPOUNDS - 644” (Arrow Therapeutics Limited, priority 2009, published 2010).

SMILES strings stand for the structures. Like-named read-outs stand apart in the source and are kept apart here.

Experiment [1] deals with HCV replicon cells Huh 9B (genotype 1b). As to the kind of experiment: 1b Replicon Assay (luciferase readout). Particulars: Hepatitis C virus, Huh 9B replicon cells, 72 h, luciferase activity. The format is cell-based. As to the method:
HCV replicon cells Huh 9B (ReBlikon), containing the firefly luciferase-ubiquitin-neomycin phosphotransferase fusion protein and EMCV-IRES driven HCV polyprotein with cell culture adaptive mutations.
Cells were cultured at 37° C./5% CO2 and split twice a week. G418 at 0.5 mg/ml was added to the culture medium but not the assay medium.
The culture medium consisted of DMEM with […] glucose and Glutamax (Gibco 61965-026) supplemented with 1× non-essential amino acids (Invitrogen 11140-035), 0.5 mg/ml G418 (Invitrogen 10131-027) and 10% Australian foetal calf serum (Invitrogen 10099-141).
Replicon cells were trypsinised and counted. Cells were diluted to 100,000 cells/ml and 100 μl used to seed one opaque white 96-well plate (for the replicon assay) and one flat-bottomed clear plate (for the tox assay) for every five compounds to be tested for IC50. Wells G12 and H12 were left empty in the clear plate as the blank. Plates were then incubated at 37° C./5% CO2 for 24 h.
On the following day compound dilutions were prepared in medium at twice their desired final concentration in a clear round bottomed plate. All dilutions have a final DMSO concentration of 1%.
Controls and compounds were transferred from the dilution plates to the assay plates (containing the cells) at 100 μl/well in duplicate wells.
Exception: no compound was added to wells A1 and A2 of either plate and 100 μl of 1% DMSO was added to these instead. Plates were then incubated at 37° C./5% CO2 for 72 h.
At the end of the incubation time, the cells in the white plate were washed in PBS (100 μL per well) and dried by tapping before addition of 204 per well of lysis buffer (25 mM tris-phosphate, 8 mM MgCl2, 1 mM DTT, 1% Triton X-100, 15% glycerol; pH to 7.8 using KH2PO4 prior to Triton X-100 and glycerol addition). Aliquots of substrate (23.5 mM beetle luciferin (Promega E1603), 26 mM ATP (Sigma O-2060) in […] Tris buffer pH 7.8) were stored at −80° C. Prior to use, required amount of luciferin was thawed and diluted 1:50 in luciferase assay buffer (20 mM Tricine (Sigma T-0377), 1.07 mM magnesium carbonate hydroxide (Sigma M-5671), 0.1 mM EDTA (Sigma E-5134), 2.67 mM MgSO4(BDH 101514Y), 33.3 mM dithiothreitol (Sigma 150460) pH 7.8).
After 5-60 min incubation in lysis buffer at room temperature, a plate was inserted into the luminometer and 100 μl luciferase assay reagent was added by the injector of the luminometer. The signal was measured using a 1 second delay followed by a 4 second measurement programme. The IC50, the concentration of the drug required for reducing the replicon level by 50% in relation to the untreated cell control value, was calculated from the plot of the percentage reduction of the luciferase activity vs. drug concentration.
A general note: A replicon is a self-replicating genome or part of one, used to study replication in cells.

For experiment [2], the system named is HCV genotype 1a replicon cells Htat2ANeo. Nature of the experiment: 1a Replicon Assay (cell-based anti-NS5a ELISA). Particulars: Hepatitis C virus, 72 h. As to the method:
HCV genotype la replicon cells Htat2ANeo (University of Texas), containing neomycin phosphotransferase fusion protein and EMCV-IRES driven HCV polyprotein with cell culture adaptive mutations, and control cells, Et2AN.
Cells were cultured at 37° C./5% CO2 and split twice a week. G418 at 0.5 mg/ml and Blastocidin at 2 mg/ml were added to the culture medium but not the assay medium.
The culture medium consisted of DMEM with […] glucose and Glutamax (Gibco 61965-026) supplemented with 1× non-essential amino acids (Invitrogen 11140-035), 0.5 mg/ml G418 (Invitrogen 10131-027), 2 mg/ml Blastocidin (PAA) and 10% is Australian foetal calf serum (Invitrogen 10099-141).
Replicon and control cells were trypsinised and counted. Replicon cells were diluted to 90,000 cells/ml and 100 μl of this used to seed columns 2-4, […] and 10-12 of a black, clear bottom 96-well plate for every three compounds to be tested for IC50. Control cells were diluted to 60,000 cells/ml and 100 μl of this used to seed columns 1, 5 and 9 of the plate. Well H1 was left empty as the blank. Plates were then incubated at 37° C./5% CO2 for 24 h.
On the following day compound dilutions were prepared in medium at twice their desired final concentration in a clear round bottomed plate.
Controls and compounds were transferred from the dilution plate to the assay plates (containing the cells) at 100 μl/well in quadruplicate wells, one well containing control cells and 3 wells containing replicon cells.
Exception: no compound was added to row H of the plate and 100 μl of 1% DMSO was added to these instead. Plates were then incubated at 37° C. with 5% CO2 for 72 h. At the end of the incubation time, any reduction in cell viability was assayed and a cell-based enzyme linked immunosorbent assay (ELISA) was performed. The media/compound was removed from all wells and replaced with 100 μl/well serum-free media and 20 μl/well Cell Titre Blue (Promega G8081). Following incubation at 37° C./5% CO2 for 2 h plates were read on a microplate fluorometer (Molecular Devices) using an excitation of 570 nm and an emission of 590 nm The TD50, the concentration of drug required to reduce 50% of Cell Titre Blue relative to the DMSO controls, was calculated by plotting the fluorescence at 590 nm after substraction of background against drug concentration.
The media/Cell Titre Blue was removed and plates washed in PBS and gently tapped dry before addition of 50 μL per well of 75% acetone/25% methanol mixture for 3 minutes. The fixative was then discarded and wells were washed with PBS before addition of 100 μl/well of blocking solution (2% non-fat dry milk and 0.05% Tween-20 in 0.85% NaCl). Plates were then incubated at 37° C. in a shaking incubator for 60 min. Blocking solution was discarded and 50 μl of mouse anti-NS5a antibody (Virostat 1877) at 1:100 dilution in blocking buffer was added to all wells. Plates were incubated at 37° C. in a shaking incubator for 90 min Antibody was then discarded and plates were washed 4 times by immersion in 0.85% NaCl/0.05% Tween-20. After washing plates were tapped dry gently and 50 μl of secondary antibody (Dako P0260 Rabbit anti-mouse horseradish peroxidase) at 1:1000 dilution in blocking buffer was added to the wells. Plates were incubated at 37° C. in a shaking incubator for 60 min. Antibody was discarded and plates were washed 6 times by immersion in 0.85% NaCl/0.05% Tween-20 and once in PBS. Finally, 50 μl of substrate (SigmaFast ortho-phenylene diamine dihydrochloride (OPD)) was added per well and the colorimetric reaction was allowed to proceed in the dark for 5 to 15 minutes depending on the strength or the signal. The reaction was stopped by addition of 25 μl/well of 20% sulphuric acid. Plates were read on the SpectraMax microplate reader at 490 nm fixed wavelength. […]

Where [3] appears, read: read-out: pIC50 1b Replicon (converted).
The mark [4] stands for this setting: read-out: pIC50 1a Replicon (converted).

Take `CC(C)(C)OC(=O)NCC(=O)N1CCC[C@H]1c1ncc(-c2ccc(-c3ccc(C(=O)Nc4ccc(CN5CCS(=O)(=O)CC5)cc4)cc3)cc2)[nH]1` [Example 12, tert-Butyl N-[2-[(2S)-2-[5-[4-[4-[[4-[(1,1-dioxo-1,4-thiazinan-4-yl)methyl]phenyl]carbamoyl]phenyl]phenyl]-1H-imidazol-2-yl]pyrrolidin-1-yl]-2-oxo-ethyl]carbamate]: the IC50 is 106 nM in experiment [1] (read-out: HCV IC50 1b Replicon), 105 nM in experiment [1] (setting [3]), 164 nM in experiment [2] (read-out: HCV IC50 Elisa 1a) and 162 nM in experiment [2] (setting [4]).

Take `CCN(CC)[C@@H](C(=O)N1CCC[C@H]1c1ncc(-c2cccc(-c3ccc(C(=O)Nc4ccc(CN5CCS(=O)(=O)CC5)cc4)cc3)c2)[nH]1)c1ccccc1` [Example 38, 4-[3-[2-[(2S)-1-[(2R)-2-(diethylamino)-2-phenyl-acetyl]pyrrolidin-2-yl]-1H-imidazol-5-yl]phenyl]-N-[4-[(1,1-dioxo-1,4-thiazinan-4-yl)methyl]phenyl]benzamide]: the IC50 in experiment [1] (read-out: HCV IC50 1b Replicon) is 2.87 nM; in experiment [1] (setting [3]), 2.88 nM; in experiment [2] (read-out: HCV IC50 Elisa 1a), 314 nM; in experiment [2] (setting [4]), 316 nM.

With `CN(C)[C@@H](C(=O)N1CCC[C@H]1c1ncc(-c2cccc(-c3ccc(C(=O)Nc4ccc(CN5CCS(=O)(=O)CC5)cc4)cc3)c2)[nH]1)c1ccccc1` [Example 39, 4-[3-[2-[(2S)-1-[(2R)-2-(dimethylamino)-2-phenyl-acetyl]pyrrolidin-2-yl]-1H-imidazol-5-yl]phenyl]-N-[4-[(1,1-dioxo-1,4-thiazinan-4-yl)methyl]phenyl]benzamide], the IC50 in experiment [1] (read-out: HCV IC50 1b Replicon) was 4.81 nM; in experiment [1] (setting [3]), 4.79 nM; in experiment [2] (read-out: HCV IC50 Elisa 1a) it was 1100 nM; in experiment [2] (setting [4]) it was 1100 nM.

For `CCCS(=O)(=O)N1CCN(Cc2ccc(NC(=O)c3ccc(-c4ccc(-c5cnc([C@@H]6CCCN6C(=O)[C@H](C)NC(=O)OC)[nH]5)cc4)cc3)cc2)CC1` [Example 41, Methyl N-[(1S)-1-methyl-2-oxo-2-[(2S)-2-[5-[4-[4-[[4-[(4-propylsulfonylpiperazin-1-yl)methyl]phenyl]carbamoyl]phenyl]phenyl]-1H-imidazol-2-yl]pyrrolidin-1-yl]ethyl]carbamate], the IC50 was 1.15 nM in experiment [1] (read-out: HCV IC50 1b Replicon), 1.15 nM in experiment [1] (setting [3]), 47 nM in experiment [2] (read-out: HCV IC50 Elisa 1a) and 46.8 nM in experiment [2] (setting [4]).

As for `CCCS(=O)(=O)N1CCN(Cc2ccc(NC(=O)c3ccc(-c4ccc(-c5cnc([C@@H]6CCCN6C(=O)[C@@H](NC(=O)OC)c6ccccc6)[nH]5)cc4)cc3)cc2)CC1` [Example 42, Methyl N-[(1S)-2-oxo-1-phenyl-2-[(2S)-2-[5-[4-[4-[[4-[(4-propylsulfonylpiperazin-1-yl)methyl]phenyl]carbamoyl]phenyl]phenyl]-1H-imidazol-2-yl]pyrrolidin-1-yl]ethyl]carbamate], the IC50 in experiment [1] (read-out: HCV IC50 1b Replicon) is 0.05 nM; in experiment [1] (setting [3]), 0.0537 nM; in experiment [2] (read-out: HCV IC50 Elisa 1a) it was 97.4 nM; in experiment [2] (setting [4]), 97.7 nM.

As for `CCCS(=O)(=O)N1CCN(Cc2ccc(NC(=O)c3ccc(-c4ccc(-c5cnc([C@@H]6CCCN6C(=O)[C@H](NC(=O)OC)c6ccccc6)[nH]5)cc4)cc3)cc2)CC1` [Example 43, Methyl N-[(1R)-2-oxo-1-phenyl-2-[(2S)-2-[5-[4-[4-[[4-[(4-propylsulfonylpiperazin-1-yl)methyl]phenyl]carbamoyl]phenyl]phenyl]-1H-imidazol-2-yl]pyrrolidin-1-yl]ethyl]carbamate], the IC50 in experiment [1] (read-out: HCV IC50 1b Replicon) is 0.05 nM; in experiment [1] (setting [3]) it was 0.055 nM; in experiment [2] (read-out: HCV IC50 Elisa 1a), 77.7 nM; in experiment [2] (setting [4]), 77.6 nM.

Turning to `CCCS(=O)(=O)N1CCN(Cc2ccc(NC(=O)c3ccc(-c4ccc(-c5cnc([C@@H]6CCCN6C(=O)[C@@H](c6ccccc6)N(CC)CC)[nH]5)cc4)cc3)cc2)CC1` [Example 44, 4-[4-[2-[(2S)-1-[(2R)-2-(diethylamino)-2-phenyl-acetyl]pyrrolidin-2-yl]-1H-imidazol-5-yl]phenyl]-N-[4-[(4-propylsulfonylpiperazin-1-yl)methyl]phenyl]benzamide], the IC50 is 0.01 nM in experiment [1] (read-out: HCV IC50 1b Replicon), 0.0145 nM in experiment [1] (setting [3]), 50.5 nM in experiment [2] (read-out: HCV IC50 Elisa 1a) and 50.1 nM in experiment [2] (setting [4]).

Take `CCCS(=O)(=O)N1CCN(Cc2ccc(NC(=O)c3ccc(-c4ccc(-c5cnc([C@@H]6CCCN6C(=O)[C@@H](c6ccccc6)N(C)C)[nH]5)cc4)cc3)cc2)CC1` [Example 45, 4-[4-[2-[(2S)-1-[(2R)-2-(dimethylamino)-2-phenyl-acetyl]pyrrolidin-2-yl]-1H-imidazol-5-yl]phenyl]-N-[4-[(4-propylsulfonylpiperazin-1-yl)methyl]phenyl]benzamide]: the IC50 is 0.03 nM in experiment [1] (read-out: HCV IC50 1b Replicon), 0.0263 nM in experiment [1] (setting [3]), 79.5 nM in experiment [2] (read-out: HCV IC50 Elisa 1a) and 79.4 nM in experiment [2] (setting [4]).

As to `COC(=O)N[C@H](C(=O)N1CCCC[C@H]1c1ncc(-c2ccc(-c3ccc(C(=O)Nc4ccc(CN5CCS(=O)(=O)CC5)cc4)cc3)cc2)[nH]1)C(C)C` [Example 50, methyl N-[(1S)-1-[(2S)-2-[5-[4-[4-[[4-[(1,1-dioxo-1,4-thiazinan-4-yl)methyl]phenyl]carbamoyl]phenyl]phenyl]-1H-imidazol-2-yl]piperidine-1-carbonyl]-2-methyl-propyl]carbamate], the IC50 was 2.98 nM in experiment [1] (read-out: HCV IC50 1b Replicon), 2.95 nM in experiment [1] (setting [3]), 28.2 nM in experiment [2] (read-out: HCV IC50 Elisa 1a) and 28.2 nM in experiment [2] (setting [4]).
